Assay results taken from the kinase profiling compilation of Christmann-Franck et al. (2016).

How the values were obtained:
Assay in all cases: KINOMEscan competition binding
Settings in all cases: compound 10.0 µM
[1] = biological target: AAK1 (human) (UniProt Q2M2I8)
[2] = biological target: AKT1 (human) (UniProt P31749)
[3] = biological target: CAMK2G (human) (UniProt Q13555)
[4] = biological target: CDK2 (human) (UniProt P24941)
[5] = biological target: CDK3 (human) (UniProt Q00526)
[6] = biological target: CDK7 (human) (UniProt P50613)
[7] = biological target: CDK9 (human) (UniProt P50750)
[8] = biological target: CDKL1 (human) (UniProt Q00532)
[9] = biological target: CLK3 (human) (UniProt P49761)
[10] = biological target: ERBB2 (human) (UniProt P04626)
[11] = biological target: FGR (human) (UniProt P09769)
[12] = biological target: HUNK (human) (UniProt P57058)
[13] = biological target: INSRR (human) (UniProt P14616)
[14] = biological target: IRAK3 (human) (UniProt Q9Y616)
[15] = biological target: ITK (human) (UniProt Q08881)
[16] = biological target: MAP3K3 (human) (UniProt Q99759)
[17] = biological target: MAP3K5 (human) (UniProt Q99683)
[18] = biological target: MAPK9 (human) (UniProt P45984)
[19] = biological target: MET (human) (UniProt P08581)
[20] = biological target: MYLK2 (human) (UniProt Q9H1R3)
[21] = biological target: NEK2 (human) (UniProt P51955)
[22] = biological target: NEK7 (human) (UniProt Q8TDX7)
[23] = biological target: NUAK1 (human) (UniProt O60285)
[24] = biological target: PIK3CA (human) (UniProt P42336)
[25] = system: PIK3CA (human), P42336 [M1043I]
[26] = biological target: PIM1 (human) (UniProt P11309)
[27] = biological target: PRKCI (human) (UniProt P41743)
[28] = biological target: PRKCQ (human) (UniProt Q04759)
[29] = biological target: PRKG1 (human) (UniProt Q13976)
[30] = biological target: PRKG2 (human) (UniProt Q13237)
[31] = biological target: PTK2 (human) (UniProt Q05397)
[32] = biological target: RET (human) (UniProt P07949)
[33] = biological target: RIOK1 (human) (UniProt Q9BRS2)
[34] = biological target: RIPK2 (human) (UniProt O43353)
[35] = biological target: TAOK2 (human) (UniProt Q9UL54)
[36] = biological target: TLK2 (human) (UniProt Q86UE8)
[37] = biological target: ULK1 (human) (UniProt O75385)
[38] = biological target: YES1 (human) (UniProt P07947)
[39] = biological target: YSK4 (human) (UniProt Q56UN5)
[40] = biological target: CSNK1G2 (human) (UniProt P78368)
[41] = biological target: DYRK2 (human) (UniProt Q92630)
Sequence of DYRK2 (human) (Q92630 whole entry, looked up): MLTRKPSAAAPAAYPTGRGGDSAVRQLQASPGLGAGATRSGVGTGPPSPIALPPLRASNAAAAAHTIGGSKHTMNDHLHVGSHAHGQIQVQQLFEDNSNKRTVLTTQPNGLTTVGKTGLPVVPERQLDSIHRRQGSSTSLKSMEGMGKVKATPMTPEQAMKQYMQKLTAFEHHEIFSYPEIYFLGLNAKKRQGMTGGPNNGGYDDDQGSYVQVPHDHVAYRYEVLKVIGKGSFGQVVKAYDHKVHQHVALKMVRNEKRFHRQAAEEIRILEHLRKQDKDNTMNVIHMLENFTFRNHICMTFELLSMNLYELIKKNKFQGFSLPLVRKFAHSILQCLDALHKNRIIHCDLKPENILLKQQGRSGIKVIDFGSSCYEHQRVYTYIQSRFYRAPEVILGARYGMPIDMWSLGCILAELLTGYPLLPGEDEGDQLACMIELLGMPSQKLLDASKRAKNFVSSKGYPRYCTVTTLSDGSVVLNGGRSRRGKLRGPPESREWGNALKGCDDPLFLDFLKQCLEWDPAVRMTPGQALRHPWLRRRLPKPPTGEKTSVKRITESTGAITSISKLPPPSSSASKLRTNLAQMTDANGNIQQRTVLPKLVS

Sequence of CDKL1 (human) (Q00532 whole entry, looked up): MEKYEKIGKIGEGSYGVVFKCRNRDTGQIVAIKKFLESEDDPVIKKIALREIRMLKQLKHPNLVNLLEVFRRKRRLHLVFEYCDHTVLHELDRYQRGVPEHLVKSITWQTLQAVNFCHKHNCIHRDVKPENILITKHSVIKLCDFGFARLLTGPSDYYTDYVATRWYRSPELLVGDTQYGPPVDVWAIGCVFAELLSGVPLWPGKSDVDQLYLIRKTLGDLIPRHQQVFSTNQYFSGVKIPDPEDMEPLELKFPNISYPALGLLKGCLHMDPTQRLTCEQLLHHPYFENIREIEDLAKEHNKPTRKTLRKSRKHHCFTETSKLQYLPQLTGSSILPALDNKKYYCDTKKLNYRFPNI
Sequence of MAPK9 (human) (P45984 whole entry, looked up): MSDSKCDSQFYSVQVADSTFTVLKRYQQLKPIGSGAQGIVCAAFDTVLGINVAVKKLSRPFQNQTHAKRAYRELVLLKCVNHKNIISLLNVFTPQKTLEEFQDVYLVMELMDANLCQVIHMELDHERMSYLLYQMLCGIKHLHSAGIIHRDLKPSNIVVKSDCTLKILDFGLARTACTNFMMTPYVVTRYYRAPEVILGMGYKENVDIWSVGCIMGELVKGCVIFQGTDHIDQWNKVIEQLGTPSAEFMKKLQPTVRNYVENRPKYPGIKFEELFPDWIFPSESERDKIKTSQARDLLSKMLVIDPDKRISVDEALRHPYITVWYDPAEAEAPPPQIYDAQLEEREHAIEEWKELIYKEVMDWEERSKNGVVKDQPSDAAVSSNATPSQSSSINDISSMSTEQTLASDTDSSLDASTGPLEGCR
Sequence of PIK3CA (human) (P42336 whole entry, looked up): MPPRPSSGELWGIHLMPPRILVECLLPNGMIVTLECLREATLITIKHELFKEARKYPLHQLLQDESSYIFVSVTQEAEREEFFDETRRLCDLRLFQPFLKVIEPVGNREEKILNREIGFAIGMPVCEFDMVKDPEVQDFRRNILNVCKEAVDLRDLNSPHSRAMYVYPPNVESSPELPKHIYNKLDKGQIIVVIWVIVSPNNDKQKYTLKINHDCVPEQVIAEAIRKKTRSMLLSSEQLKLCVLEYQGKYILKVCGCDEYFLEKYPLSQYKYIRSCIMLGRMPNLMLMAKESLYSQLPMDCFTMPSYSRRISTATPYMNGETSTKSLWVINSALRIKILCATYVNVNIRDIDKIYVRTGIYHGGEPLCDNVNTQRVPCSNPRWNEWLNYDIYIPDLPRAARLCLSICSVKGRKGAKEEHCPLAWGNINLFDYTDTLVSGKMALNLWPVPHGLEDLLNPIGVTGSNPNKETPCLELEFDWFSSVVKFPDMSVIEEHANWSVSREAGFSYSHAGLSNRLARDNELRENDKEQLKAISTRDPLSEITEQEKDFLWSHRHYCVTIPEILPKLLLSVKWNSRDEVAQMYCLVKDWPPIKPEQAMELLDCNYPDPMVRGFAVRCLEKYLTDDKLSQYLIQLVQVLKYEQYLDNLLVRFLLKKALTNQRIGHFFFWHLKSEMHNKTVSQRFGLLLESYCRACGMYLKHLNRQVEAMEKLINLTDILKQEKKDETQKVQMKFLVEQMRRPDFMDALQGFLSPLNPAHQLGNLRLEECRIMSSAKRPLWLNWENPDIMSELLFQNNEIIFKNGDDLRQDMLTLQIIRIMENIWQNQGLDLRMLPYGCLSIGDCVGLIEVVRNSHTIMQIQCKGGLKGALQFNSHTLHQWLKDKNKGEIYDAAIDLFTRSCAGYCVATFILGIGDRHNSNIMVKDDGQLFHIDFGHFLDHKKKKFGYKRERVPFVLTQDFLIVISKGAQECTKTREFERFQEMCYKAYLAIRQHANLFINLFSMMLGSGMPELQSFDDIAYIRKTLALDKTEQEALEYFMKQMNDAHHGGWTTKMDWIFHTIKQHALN
Sequence of TLK2 (human) (Q86UE8 whole entry, looked up): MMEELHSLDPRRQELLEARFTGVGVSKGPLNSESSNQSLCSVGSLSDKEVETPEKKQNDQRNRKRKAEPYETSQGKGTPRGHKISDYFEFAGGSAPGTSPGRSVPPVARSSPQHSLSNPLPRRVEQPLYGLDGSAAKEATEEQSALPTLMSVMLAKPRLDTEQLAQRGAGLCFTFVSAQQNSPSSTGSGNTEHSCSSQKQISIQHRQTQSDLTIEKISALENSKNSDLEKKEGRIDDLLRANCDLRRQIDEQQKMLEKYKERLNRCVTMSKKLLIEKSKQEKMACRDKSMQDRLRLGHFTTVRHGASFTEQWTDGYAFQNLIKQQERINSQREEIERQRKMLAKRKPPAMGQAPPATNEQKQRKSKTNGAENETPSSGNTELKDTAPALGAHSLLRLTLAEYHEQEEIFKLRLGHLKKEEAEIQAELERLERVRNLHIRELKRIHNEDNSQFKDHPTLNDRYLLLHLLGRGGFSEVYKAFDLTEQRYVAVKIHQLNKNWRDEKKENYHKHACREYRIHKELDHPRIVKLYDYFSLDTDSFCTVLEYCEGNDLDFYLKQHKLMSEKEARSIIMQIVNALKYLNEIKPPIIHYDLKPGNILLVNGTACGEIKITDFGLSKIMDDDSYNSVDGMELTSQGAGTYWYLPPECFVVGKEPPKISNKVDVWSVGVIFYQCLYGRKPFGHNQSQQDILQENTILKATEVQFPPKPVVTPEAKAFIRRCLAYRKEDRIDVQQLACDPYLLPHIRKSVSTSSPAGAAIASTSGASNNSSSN
Sequence of CDK7 (human) (P50613 whole entry, looked up): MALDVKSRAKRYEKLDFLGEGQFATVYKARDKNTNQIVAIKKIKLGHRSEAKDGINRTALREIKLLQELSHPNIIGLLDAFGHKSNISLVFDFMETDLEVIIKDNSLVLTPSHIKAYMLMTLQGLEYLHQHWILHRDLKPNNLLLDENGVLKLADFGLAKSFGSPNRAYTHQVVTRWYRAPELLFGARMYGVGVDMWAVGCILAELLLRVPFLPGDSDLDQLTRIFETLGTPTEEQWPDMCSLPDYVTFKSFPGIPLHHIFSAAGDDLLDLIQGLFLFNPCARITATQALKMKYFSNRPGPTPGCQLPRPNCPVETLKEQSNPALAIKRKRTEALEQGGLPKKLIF
Sequence of PRKCQ (human) (Q04759 whole entry, looked up): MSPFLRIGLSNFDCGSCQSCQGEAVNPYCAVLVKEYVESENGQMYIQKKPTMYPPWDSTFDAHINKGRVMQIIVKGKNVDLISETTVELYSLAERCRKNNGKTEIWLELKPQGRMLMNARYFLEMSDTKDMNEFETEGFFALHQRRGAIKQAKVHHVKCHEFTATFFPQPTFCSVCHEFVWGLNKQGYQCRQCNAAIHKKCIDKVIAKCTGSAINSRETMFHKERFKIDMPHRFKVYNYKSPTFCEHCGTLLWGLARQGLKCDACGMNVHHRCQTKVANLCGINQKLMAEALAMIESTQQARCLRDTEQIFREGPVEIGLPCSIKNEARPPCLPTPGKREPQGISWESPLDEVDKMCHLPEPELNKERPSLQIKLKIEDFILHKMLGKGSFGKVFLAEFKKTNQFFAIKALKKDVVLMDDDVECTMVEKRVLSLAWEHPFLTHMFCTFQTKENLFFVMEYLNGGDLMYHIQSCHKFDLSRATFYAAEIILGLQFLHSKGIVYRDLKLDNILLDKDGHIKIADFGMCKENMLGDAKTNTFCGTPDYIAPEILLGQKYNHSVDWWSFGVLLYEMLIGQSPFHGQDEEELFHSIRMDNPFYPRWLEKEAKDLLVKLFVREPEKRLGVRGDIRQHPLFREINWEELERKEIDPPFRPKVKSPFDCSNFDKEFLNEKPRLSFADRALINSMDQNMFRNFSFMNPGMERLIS
Sequence of ITK (human) (Q08881 whole entry, looked up): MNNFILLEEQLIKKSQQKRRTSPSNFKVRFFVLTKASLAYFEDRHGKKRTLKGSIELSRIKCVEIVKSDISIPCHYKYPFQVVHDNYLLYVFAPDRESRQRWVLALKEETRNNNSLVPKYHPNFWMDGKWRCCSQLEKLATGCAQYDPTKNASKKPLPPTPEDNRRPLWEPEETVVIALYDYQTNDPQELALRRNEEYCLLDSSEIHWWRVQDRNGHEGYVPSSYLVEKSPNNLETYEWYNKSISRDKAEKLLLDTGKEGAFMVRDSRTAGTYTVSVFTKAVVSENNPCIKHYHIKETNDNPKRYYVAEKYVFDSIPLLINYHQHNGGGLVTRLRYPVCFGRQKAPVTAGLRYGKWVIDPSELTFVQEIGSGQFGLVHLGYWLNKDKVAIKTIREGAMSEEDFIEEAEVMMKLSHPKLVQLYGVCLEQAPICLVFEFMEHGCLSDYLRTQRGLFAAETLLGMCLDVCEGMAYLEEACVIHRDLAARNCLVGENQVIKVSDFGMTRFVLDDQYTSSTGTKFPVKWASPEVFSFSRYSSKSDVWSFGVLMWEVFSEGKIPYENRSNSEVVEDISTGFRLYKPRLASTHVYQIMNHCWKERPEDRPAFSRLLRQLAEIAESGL
Sequence of PIK3CA (human), P42336 [M1043I] (P42336 whole entry M1043I, looked up): as the sequence (P42336 whole entry, looked up) above, with M1043I counted along it

| Structure (SMILES) | kinase still bound, per cent of control [2] | kinase still bound, per cent of control [3] | kinase still bound, per cent of control [4] | kinase still bound, per cent of control [5] | kinase still bound, per cent of control [6] | kinase still bound, per cent of control [7] | kinase still bound, per cent of control [9] | kinase still bound, per cent of control [10] | kinase still bound, per cent of control [11] | kinase still bound, per cent of control [12] | kinase still bound, per cent of control [13] | kinase still bound, per cent of control [14] | kinase still bound, per cent of control [15] | kinase still bound, per cent of control [16] | kinase still bound, per cent of control [18] | kinase still bound, per cent of control [19] | kinase still bound, per cent of control [20] | kinase still bound, per cent of control [21] | kinase still bound, per cent of control [22] | kinase still bound, per cent of control [23] | further results |
| --- | --- | --- | --- | --- | --- | --- | --- | --- | --- | --- | --- | --- | --- | --- | --- | --- | --- | --- | --- | --- | --- |
| CCCS(=O)(=O)Nc1ccc(F)c(C(=O)c2c[nH]c3ncc(Cl)cc23)c1F | 100% | 96% | 78% | 98% | 69% | 86% | 80% | 78% | 8.4% | 24% | 89% | 26% | 99% | 61% | 71% | 77% | 64% | 49% | 59% | 100% | kinase still bound, per cent of control [1]: 84%; kinase still bound, per cent of control [8]: 93%; kinase still bound, per cent of control [17]: 74%; kinase still bound, per cent of control [24]: 82%; kinase still bound, per cent of control [25]: 76%; kinase still bound, per cent of control [26]: 77%; kinase still bound, per cent of control [27]: 100%; kinase still bound, per cent of control [28]: 79%; kinase still bound, per cent of control [29]: 100%; kinase still bound, per cent of control [30]: 93%; kinase still bound, per cent of control [31]: 51%; kinase still bound, per cent of control [32]: 76%; kinase still bound, per cent of control [33]: 100%; kinase still bound, per cent of control [34]: 8.3%; kinase still bound, per cent of control [35]: 43%; kinase still bound, per cent of control [36]: 75%; kinase still bound, per cent of control [37]: 44%; kinase still bound, per cent of control [38]: 18%; kinase still bound, per cent of control [39]: 29% |
| Cc1cn(-c2cc(C(=O)Nc3ccc(C)c(NC(=O)c4ccno4)c3)cc(C(F)(F)F)c2)cn1 | 100% | 100% | 100% | 100% | 100% | 100% | 100% | 100% | 23% | 100% | 100% | 100% | 100% | 100% | 100% | 100% | 100% | 100% | 100% | 100% | kinase still bound, per cent of control [1]: 100%; kinase still bound, per cent of control [40]: 100%; kinase still bound, per cent of control [41]: 100%; kinase still bound, per cent of control [17]: 100%; kinase still bound, per cent of control [24]: 100%; kinase still bound, per cent of control [25]: 100%; kinase still bound, per cent of control [26]: 100%; kinase still bound, per cent of control [28]: 100%; kinase still bound, per cent of control [29]: 100%; kinase still bound, per cent of control [30]: 100%; kinase still bound, per cent of control [31]: 100%; kinase still bound, per cent of control [32]: 100%; kinase still bound, per cent of control [33]: 100%; kinase still bound, per cent of control [34]: 100%; kinase still bound, per cent of control [36]: 100%; kinase still bound, per cent of control [37]: 100%; kinase still bound, per cent of control [38]: 13%; kinase still bound, per cent of control [39]: 100% |
| CCN(CCO)CCCOc1ccc2c(Nc3cc(CC(=O)Nc4cccc(F)c4)[nH]n3)ncnc2c1 | 96% | 100% | 84% | 95% | 15% | 82% | 100% | 13% | 82% | 94% | 76% | 37% | 96% | 70% | 46% | 46% | 87% | 83% | 94% | 60% | kinase still bound, per cent of control [8]: 84%; kinase still bound, per cent of control [40]: 76%; kinase still bound, per cent of control [41]: 73%; kinase still bound, per cent of control [17]: 100%; kinase still bound, per cent of control [24]: 100%; kinase still bound, per cent of control [25]: 100%; kinase still bound, per cent of control [26]: 100%; kinase still bound, per cent of control [27]: 96%; kinase still bound, per cent of control [28]: 100%; kinase still bound, per cent of control [30]: 92%; kinase still bound, per cent of control [31]: 64%; kinase still bound, per cent of control [32]: 0.25%; kinase still bound, per cent of control [33]: 100%; kinase still bound, per cent of control [34]: 17%; kinase still bound, per cent of control [35]: 98%; kinase still bound, per cent of control [36]: 100%; kinase still bound, per cent of control [37]: 76%; kinase still bound, per cent of control [38]: 42%; kinase still bound, per cent of control [39]: 39% |
| CC(=O)c1c(C)c2cnc(Nc3ccc(N4CCNCC4)cn3)nc2n(C2CCCC2)c1=O | 92% | 11% | 20% | 74% | 12% | 27% | 55% | 79% | 71% | 77% | 98% | 36% | 71% | 4.2% | 0.5% | 36% | 32% | 31% | 60% | 48% | kinase still bound, per cent of control [1]: 11%; kinase still bound, per cent of control [8]: 35%; kinase still bound, per cent of control [40]: 92%; kinase still bound, per cent of control [41]: 5.5%; kinase still bound, per cent of control [24]: 69%; kinase still bound, per cent of control [25]: 68%; kinase still bound, per cent of control [27]: 57%; kinase still bound, per cent of control [28]: 68%; kinase still bound, per cent of control [30]: 65%; kinase still bound, per cent of control [31]: 61%; kinase still bound, per cent of control [32]: 71%; kinase still bound, per cent of control [33]: 38%; kinase still bound, per cent of control [35]: 30%; kinase still bound, per cent of control [36]: 89%; kinase still bound, per cent of control [37]: 3.1%; kinase still bound, per cent of control [38]: 83%; kinase still bound, per cent of control [39]: 4.3% |
